Assays:
human 11β-HSD2 = target: T1, human 11β-HSD2 (Homo sapiens, UniProt P80365); test: Cellular in vitro 11β-HSD2 enzyme inhibition assay (CHO cells, TLC/phosphoimager); assay type: cell-based; conditions: CHO cells stably transfected with human 11β-HSD2; Table 1
T1 construct: CHO cells stably transfected with the full-length gene coding for human 11β-HSD2 were used; expressed in transfected cells; host or cells: CHO
T1 sequence (P80365 1-405): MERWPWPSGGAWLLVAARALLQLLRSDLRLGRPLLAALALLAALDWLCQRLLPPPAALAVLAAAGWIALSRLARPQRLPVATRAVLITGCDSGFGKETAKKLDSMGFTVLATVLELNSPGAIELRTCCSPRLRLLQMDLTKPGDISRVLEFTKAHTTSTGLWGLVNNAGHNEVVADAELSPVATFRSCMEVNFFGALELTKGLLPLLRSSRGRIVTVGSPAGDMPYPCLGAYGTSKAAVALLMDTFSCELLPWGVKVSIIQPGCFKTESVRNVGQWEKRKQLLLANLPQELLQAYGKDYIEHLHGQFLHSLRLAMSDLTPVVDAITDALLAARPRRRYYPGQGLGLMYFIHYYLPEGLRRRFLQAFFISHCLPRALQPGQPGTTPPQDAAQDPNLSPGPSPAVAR
Protocol: Cellular In Vitro 11β-HSD2 Enzyme Inhibition Assay
For measurement of inhibition of 11β-HSD2, CHO cells stably transfected with the full-length gene coding for human 11β-HSD2 were used. Assays were carried out in 96-well microplates containing 1×10^5 cells/well. Controls and compounds were plated as above, so that the final DMSO concentration in each well was 1%. To initiate the assay, 90 μL of a solution of HAMS F-12 medium containing 1% glutamine, 1% penicillin and streptomycin, and 22 nM tritiated cortisol was added to each well of the assay plate. The plate was then incubated in 5% CO2, 95% O2 at 37° C. for 16 hours.
The assay solutions were transferred to glass tubes and 20 μL ethyl acetate added to each tube. Each tube was vortexed thoroughly and the upper layer containing the tritiated steroid transferred to a fresh glass tube. The solvent was evaporated by placing the tubes in a heating block at 65° C. under a stream of Nitrogen gas. 20 μL ethanol was added to each of the dried samples and vortexed briefly. Each sample was applied to a silica TLC plate and the plate dried. The plate was placed vertically in a glass tank containing 92% chloroform:8% ethanol and the solvent allowed to rise up the plate. The plate was dried, placed in an imaging cassette, and overlayed with a tritium imaging plate for 1-2 days. The amount of enzyme inhibition in each sample was determined by measuring the intensity of the substrate and product spots using a phosphoimager.
IC50 values for inhibitors were determined as described for 11β-HSD1.

human 11β-HSD1 enzyme = target: T2, human 11β-HSD1 enzyme (Homo sapiens, UniProt P28845); test: Cellular in vitro 11β-HSD1 enzyme inhibition assay (SPA, HEK293/11β-HSD1 cells); assay type: cell-based
T2 construct: stably transfected with a construct containing the full-length gene coding for the human 11β-HSD1 enzyme; expressed in transfected cells; host or cells: HEK293 (HEK293/11β-HSD1 cells)
Procedure, shortened: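 Stably transfected HEK293 cells expressing full-length human 11β-HSD1 were plated 24 h, then incubated with compound 2 h at 37 °C; cortisol formed was quantified by SPA with anti-cortisol antibody. Percent inhibition used no-cell (minimum) and no-compound (maximum) wells; IC50 from four-parameter logistic fit.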

[1] = HEK293, less than or equal to 1000 nM (1 μM)
[2] = HEK293 cells stably transfected with human 11β-HSD1, Table 1
[3] = HEK293, more than 1000 nM (1.0 μM) and less than or equal to 30 μM

T2 sequence (P28845 whole entry): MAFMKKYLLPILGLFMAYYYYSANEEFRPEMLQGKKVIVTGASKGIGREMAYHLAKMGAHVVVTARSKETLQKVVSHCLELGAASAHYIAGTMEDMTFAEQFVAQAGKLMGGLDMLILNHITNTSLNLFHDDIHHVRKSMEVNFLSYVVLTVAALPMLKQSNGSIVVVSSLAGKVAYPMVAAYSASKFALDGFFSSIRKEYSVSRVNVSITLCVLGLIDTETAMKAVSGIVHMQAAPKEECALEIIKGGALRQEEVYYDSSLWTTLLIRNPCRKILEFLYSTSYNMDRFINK

Structure (SMILES)	IC50 (human 11β-HSD2) [µM]	IC50 (human 11β-HSD1 enzyme; [1]) [nM]	IC50 (human 11β-HSD1 enzyme; [2]) [nM]	IC50 (human 11β-HSD1 enzyme; [3]) [nM]
CC(=O)N1CCC(c2cc(C(=O)N3CCC[C@@H]4CCCC[C@@H]43)cs2)C1 (relative stereo) [CC-111, cis-1-{3-[4-(Octahydro-quinoline-1-carbonyl)-thiophen-2-yl]-pyrrolidin-1-yl}ethanone]	> 10	≤ 1000	20	
O=C(c1csc(C2CCNCC2)c1)N1CCC[C@@H]2CCCC[C@@H]21 (single isomer, unassigned) [CC-033, cis-(octahydro-quinolin-1-yl)-(5-piperidin-4-yl-thiophen-3-yl)-methanone]	> 10		127	
CCc1cc(C(=O)N2CCCCC2)c(Cl)s1 [AA-001, (2-Chloro-5-ethyl-thiophen-3-yl)-piperidin-1-yl-methanone]	> 10	≤ 1000	281	
CCc1cc(C(=O)N2CC3(C)CC2CC(C)(C)C3)cs1 (stereo not shown) [AA-014, (5-Ethyl-thiophen-3-yl)-(1,3,3-trimethyl-6-aza-bicyclo[3.2.1]oct-6-yl)-methanone]	> 10	≤ 1000	4	
COCc1cc(C(=O)N2CCCC3(CCCCC3)C2)cs1 [BB-007]	> 10	≤ 1000	68	
CC1(C)CCCN(C(=O)c2csc(C3CCOCC3)c2)C1 [CC-003]	> 10	≤ 1000	150	
CNC(=O)N1CCC(c2cc(C(=O)N3CCCC4CCCCC43)cs2)CC1 (stereo not shown) [CC-106]	> 10	≤ 1000	96	
COC(=O)N1CCC(c2cc(C(=O)N3CCCCC3c3ccccc3)cs2)CC1 (stereo not shown) [CC-119]	> 10	≤ 1000	61	
CS(=O)(=O)NCCNC(=O)N1CCC(c2cc(C(=O)N3CCCC4CCCCC43)cs2)CC1 (stereo not drawn) [CC-168, cis-4-[4-(Octahydro-quinoline-1-carbonyl)-thiophen-2-yl]-piperidine-1-carboxylic acid(2-methanesulfonylamino-ethyl)-amide]	> 10	≤ 1000	77	
CC(C)(C(=O)N1CCCC1)N1CCC(c2cc(C(=O)N3CCCC4CCCCC43)cs2)CC1 (stereo not shown) [CC-170]		≤ 1000		
CNC(=O)C(C)(C)N1CCC(c2cc(C(=O)N3CCCC4CCCCC43)cs2)CC1 (stereo not shown) [CC-171]		≤ 1000		
O=C(NCCO)N1CCC(c2cc(C(=O)N3CCCC4CCCCC43)cs2)CC1 (stereo not shown) [CC-173]		≤ 1000		
CC(C)(C(N)=O)N1CCC(c2cc(C(=O)N3CCCC4CCCCC43)cs2)CC1 (stereo not shown) [CC-174]		≤ 1000		
CC1(C)CCCN(C(=O)c2csc(C3CCN(C(=O)NCCO)CC3)c2)CC1 [CC-175]	> 10	≤ 1000	23	
CC1(C)CCCN(C(=O)c2csc(C3CCCCC3)c2)C1 [DD-001]		≤ 1000		
O=C(c1csc(C2CCCCC2)c1)N1CCCCCC1 [DD-002, Azepan-1-yl-(5-cyclohexyl-thiophen-3-yl)-methanone]	> 10	≤ 1000	882	
O=C(c1csc(C2CCCCC2)c1)N1CCCC2CCCCC21 (stereo not shown) [DD-003]				1000 to 30000
CC1(C)CC2CC(C)(CN2C(=O)c2csc(C3CCCCC3)c2)C1 (stereo not shown) [DD-005]		≤ 1000		
O=C(c1csc(C2CCCCC2)c1)N1CCCC2(CCCCC2)C1 [DD-006]				1000 to 30000

— patent US8362008B2 (The University Of Edinburgh, priority 2007, dated 2013)
